target: His-His-USP7 (aa208-560, [C315A]) (Homo sapiens (Human), UniProt Q93009, C315A); assay: Evaluation of the inhibition of USP7 by Fluorescence Intensity (FLINT) readings; type: biochemical; conditions: 0.25 nM USP7, 60 minutes at 30° C. preincubation, 500 nM Ubiquitin-Rhodamine-110 substrate, 50% reduction in kinetic rate
Experimental: USP7 activity was measured using Rhodamine-110 c-terminal labelled Ubiquitin as a substrate (Viva Biosciences). Incubation with USP7 results in the release of Rhodamine-110 leading to an increase in fluorescence which can be used in the continuous measurement of USP7 activity.
The USP7 reactions were performed in a 50 μL volume, in 384 well black solid low binding plates (Corning #3575). The reaction buffer consisted of 100 mM Bicine pH 8.0, 0.01% TritonX100, 1 mM TCEP, and 10% DMSO.
0.25 nM His-His-USP7 (aa208-560, [C315A]) was incubated with compound (final concentration 10% DMSO) for 60 minutes at 30° C. The reaction was then initiated by the addition of 500 nM Ubiquitin-Rhodamine-110 substrate and the plate read every 3 minutes for 21 minutes to measure the release of Rhodamine-110. Fluorescence Intensity (FLINT) readings were measured using a […] Neo plate reader (Ex.485 nm, Em.535 nm).
The inhibition of increasing doses of compound was expressed as a percentage reduction in kinetic rate compared to the kinetic rates established between ‘DMSO only’ and ‘total inhibition’ controls (no USP7). The inhibitory concentrations that gave a 50% reduction in kinetic rate (IC50) were determined, from 11-point dose response curves, in XL-Fit using a 4-Parameter Logistic Model (Sigmoidal Dose-Response Model).

Chain of His-His-USP7 (aa208-560, [C315A]) (Q93009 208-560 C315A): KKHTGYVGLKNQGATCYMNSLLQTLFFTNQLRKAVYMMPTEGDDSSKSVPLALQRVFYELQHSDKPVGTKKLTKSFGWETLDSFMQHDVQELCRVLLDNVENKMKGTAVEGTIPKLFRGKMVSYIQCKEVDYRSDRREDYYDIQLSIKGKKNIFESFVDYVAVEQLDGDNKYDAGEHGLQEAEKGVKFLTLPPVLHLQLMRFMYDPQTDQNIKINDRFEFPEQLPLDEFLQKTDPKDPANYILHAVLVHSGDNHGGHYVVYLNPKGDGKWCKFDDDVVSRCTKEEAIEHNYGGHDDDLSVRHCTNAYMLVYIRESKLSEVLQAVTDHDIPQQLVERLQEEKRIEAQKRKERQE

Row | Compound | IC50 [µM]
1 | COc1ccc(-n2ccc3c(=O)n(CC4(O)CCN(C(=O)[C@@H]5CCN(C(C)=O)C[C@H]5c5ccccc5)CC4)cnc32)cc1 [EXAMPLE 178, 3-[[1-[(3R,4R)-1-acetyl-3-phenyl-piperidine-4-carbonyl]-4-hydroxy-4-piperidyl]methyl]-7-(4-methoxyphenyl)pyrrolo[2,3-d]pyrimidin-4-one] | 0.0961
2 | CC(=O)N1CC[C@@H](C(=O)N2CCC(O)(Cn3cnc4c(ccn4-c4ccc(F)cc4)c3=O)CC2)[C@H](c2ccccc2)C1 [EXAMPLE 166, 3-[[1-[(3R,4R)-1-acetyl-3-phenyl-piperidine-4-carbonyl]-4-hydroxy-4-piperidyl]methyl]-7-(4-fluorophenyl)pyrrolo[2,3-d]pyrimidin-4-one] | 0.102
3 | O=C([C@@H]1CCNC[C@H]1c1ccccc1)N1CCC(O)(Cn2cnc3c(ccn3-c3ccc(Cl)cc3)c2=O)CC1 [EXAMPLE 143, 7-(4-chlorophenyl)-3-[[4-hydroxy-1-[(3R,4R)-3-phenylpiperidine-4-carbonyl]-4-piperidyl]methyl]pyrrolo[2,3-d]pyrimidin-4-one] | 0.0412
4 | COc1cc(-n2ccc3c(=O)n(CC4(O)CCN(C(=O)[C@@H]5CCNC[C@H]5c5ccccc5)CC4)cnc32)ccc1F [EXAMPLE 157, 7-(4-fluoro-3-methoxy-phenyl)-3-[[4-hydroxy-1-[(3R,4R)-3-phenylpiperidine-4-carbonyl]-4-piperidyl]methyl]pyrrolo[2,3-d]pyrimidin-4-one] | 0.0393
5 | COc1ccc(-n2ccc3c(=O)n(CC4(O)CCN(C(=O)[C@@H]5CCN(C)C[C@H]5c5ccccc5)CC4)cnc32)cc1 [EXAMPLE 151, 3-[[4-hydroxy-1-[(3R,4R)-1-methyl-3-phenyl-piperidine-4-carbonyl]-4-piperidyl]methyl]-7-(4-methoxyphenyl)pyrrolo[2,3-d]pyrimidin-4-one] | 0.0524
6 | CN1CC[C@@H](C(=O)N2CCC(O)(Cn3cnc4c(ccn4-c4ccccc4)c3=O)CC2)[C@H](c2ccccc2)C1 [EXAMPLE 121, 3-[[4-hydroxy-1-[(3R,4R)-1-methyl-3-phenyl-piperidine-4-carbonyl]-4-piperidyl]methyl]-7-phenyl-pyrrolo[2,3-d]pyrimidin-4-one] | 0.14
7 | CC(=O)N1CC[C@@H](C(=O)N2CCC(O)(Cn3cnc4c(ccn4-c4ccccc4)c3=O)CC2)[C@H](c2ccccc2)C1 [EXAMPLE 147, 3-[[1-[(3R,4R)-1-acetyl-3-phenyl-piperidine-4-carbonyl]-4-hydroxy-4-piperidyl]methyl]-7-phenyl-pyrrolo[2,3-d]pyrimidin-4-one] | 0.406
8 | CC(C)(C)CC(=O)N1CC[C@@H](C(=O)N2CCC(O)(Cn3cnc4c(ccn4-c4ccccc4)c3=O)CC2)[C@H](c2ccccc2)C1 [EXAMPLE 187, 3-[[1-[(3R,4R)-1-(3,3-dimethylbutanoyl)-3-phenyl-piperidine-4-carbonyl]-4-hydroxy-4-piperidyl]methyl]-7-phenyl-pyrrolo[2,3-d]pyrimidin-4-one] | 0.0885
9 | O=C([C@@H]1CCNC[C@H]1c1ccccc1)N1CCC(O)(Cn2cnc3c(ccn3-c3cccc(Cl)c3)c2=O)CC1 [EXAMPLE 142, 7-(3-chlorophenyl)-3-[[4-hydroxy-1-[(3R,4R)-3-phenylpiperidine-4-carbonyl]-4-piperidyl]methyl]pyrrolo[2,3-d]pyrimidin-4-one] | 0.0567
10 | CC(C)(C)C(=O)N1CC[C@@H](C(=O)N2CCC(O)(Cn3cnc4c(ccn4-c4ccccc4)c3=O)CC2)[C@H](c2ccccc2)C1 [EXAMPLE 184, 3-[[1-[(3R,4R)-1-(2,2-dimethylpropanoyl)-3-phenyl-piperidine-4-carbonyl]-4-hydroxy-4-piperidyl]methyl]-7-phenyl-pyrrolo[2,3-d]pyrimidin-4-one] | 0.083
11 | CN1CC[C@@H](C(=O)N2CCC(O)(Cn3cnc4c(ccn4-c4cccc(Cl)c4)c3=O)CC2)[C@H](c2ccccc2)C1 [EXAMPLE 152, 7-(3-chlorophenyl)-3-[[4-hydroxy-1-[(3R,4R)-1-methyl-3-phenyl-piperidine-4-carbonyl]-4-piperidyl]methyl]pyrrolo[2,3-d]pyrimidin-4-one] | 0.0648

Continued by falling IC50, values first:

Row | IC50 [µM] | Compound
12 | 0.86 | COc1ccc(-n2ncc3c(=O)n(CC4(O)CCN(C(=O)[C@@H]5CC[N+](C)(C)C[C@H]5c5ccccc5)CC4)cnc32)cc1 [EXAMPLE 169, 5-[[1-[(3R,4R)-1,1-dimethyl-3-phenyl-piperidin-1-ium-4-carbonyl]-4-hydroxy-4-piperidyl]methyl]-1-(4-methoxyphenyl)pyrazolo[3,4-d]pyrimidin-4-one]
13 | 0.394 | O=C([C@@H]1CCNC[C@H]1c1ccccc1)N1CCC(O)(Cn2cnc3c(ccn3-c3ccccn3)c2=O)CC1 [EXAMPLE 104, 3-[[4-hydroxy-1-[(3R,4R)-3-phenylpiperidine-4-carbonyl]-4-piperidyl]methyl]-7-(2-pyridyl)pyrrolo[2,3-d]pyrimidin-4-one]
14 | 0.128 | CC(C)(C)OC(=O)N1CC[C@@H](C(=O)N2CCC(O)(Cn3cnc4sccc4c3=O)CC2)[C@H](c2ccccc2)C1 [EXAMPLE 2, tert-butyl (3R,4R)-4-[4-hydroxy-4-[(4-oxothieno[2,3-d]pyrimidin-3-yl)methyl]piperidine-1-carbonyl]-3-phenyl-piperidine-1-carboxylate]
15 | 0.108 | CC(C)CN1CC[C@@H](C(=O)N2CCC(O)(Cn3cnc4c(ccn4-c4ccccc4)c3=O)CC2)[C@H](c2ccccc2)C1 [EXAMPLE 163, 3-[[4-hydroxy-1-[(3R,4R)-1-isobutyl-3-phenyl-piperidine-4-carbonyl]-4-piperidyl]methyl]-7-phenyl-pyrrolo[2,3-d]pyrimidin-4-one]
16 | 0.103 | CC(C)C(=O)N1CC[C@@H](C(=O)N2CCC(O)(Cn3cnc4c(ccn4-c4ccccc4)c3=O)CC2)[C@H](c2ccccc2)C1 [EXAMPLE 177, 3-[[4-hydroxy-1-[(3R,4R)-1-(2-methylpropanoyl)-3-phenyl-piperidine-4-carbonyl]-4-piperidyl]methyl]-7-phenyl-pyrrolo[2,3-d]pyrimidin-4-one]
17 | 0.089 | CC(=O)N1CC[C@@H](C(=O)N2CCC(O)(Cn3cnc4c(ccn4-c4cccc(Cl)c4)c3=O)CC2)[C@H](c2ccccc2)C1 [EXAMPLE 180, 3-[[1-[(3R,4R)-1-acetyl-3-phenyl-piperidine-4-carbonyl]-4-hydroxy-4-piperidyl]methyl]-7-(3-chlorophenyl)pyrrolo[2,3-d]pyrimidin-4-one]
18 | 0.0884 | COc1cccc(-n2ccc3c(=O)n(CC4(O)CCN(C(=O)[C@@H]5CCN(C(C)=O)C[C@H]5c5ccccc5)CC4)cnc32)c1 [EXAMPLE 179, 3-[[1-[(3R,4R)-1-acetyl-3-phenyl-piperidine-4-carbonyl]-4-hydroxy-4-piperidyl]methyl]-7-(3-methoxyphenyl)pyrrolo[2,3-d]pyrimidin-4-one]
19 | 0.0748 | CN1CC[C@@H](C(=O)N2CCC(O)(Cn3cnc4c(ccn4-c4ccc(F)cc4)c3=O)CC2)[C@H](c2ccccc2)C1 [EXAMPLE 141, 7-(4-fluorophenyl)-3-[[4-hydroxy-1-[(3R,4R)-1-methyl-3-phenyl-piperidine-4-carbonyl]-4-piperidyl]methyl]pyrrolo[2,3-d]pyrimidin-4-one]
20 | 0.0742 | CC(=O)N1CC[C@@H](C(=O)N2CCC(O)(Cn3cnc4c(ccn4-c4ccc(Cl)cc4)c3=O)CC2)[C@H](c2ccccc2)C1 [EXAMPLE 181, 3-[[1-[(3R,4R)-1-acetyl-3-phenyl-piperidine-4-carbonyl]-4-hydroxy-4-piperidyl]methyl]-7-(4-chlorophenyl)pyrrolo[2,3-d]pyrimidin-4-one]
21 | 0.0702 | COc1cc(-n2ccc3c(=O)n(CC4(O)CCN(C(=O)[C@@H]5CCN(C(=O)OC(C)(C)C)C[C@H]5c5ccccc5)CC4)cnc32)ccc1F [EXAMPLE 57, tert-butyl (3R,4R)-4-[4-[[7-(4-fluoro-3-methoxy-phenyl)-4-oxo-pyrrolo[2,3-d]pyrimidin-3-yl]methyl]-4-hydroxy-piperidine-1-carbonyl]-3-phenyl-piperidine-1-carboxylate]
22 | 0.0687 | CC(C)(C)OC(=O)N1CC[C@@H](C(=O)N2CCC(O)(Cn3cnc4c(cnn4-c4ccc5c(c4)OCCO5)c3=O)CC2)[C@H](c2ccccc2)C1 [EXAMPLE 64, tert-butyl (3R,4R)-4-[4-[[1-(2,3-dihydro-1,4-benzodioxin-6-yl)-4-oxo-pyrazolo[3,4-d]pyrimidin-5-yl]methyl]-4-hydroxy-piperidine-1-carbonyl]-3-phenyl-piperidine-1-carboxylate]
23 | 0.0615 | COc1ccc(-n2ncc3c(=O)n(CC4(O)CCN(C(=O)[C@@H]5CCN(C(=O)OC(C)(C)C)C[C@H]5c5ccccc5)CC4)cnc32)cc1 [EXAMPLE 44, tert-butyl (3R,4R)-4-[4-hydroxy-4-[[1-(4-methoxyphenyl)-4-oxo-pyrazolo[3,4-d]pyrimidin-5-yl]methyl]piperidine-1-carbonyl]-3-phenyl-piperidine-1-carboxylate]
24 | 0.0377 | O=C([C@@H]1CCNC[C@H]1c1ccccc1)N1CCC(O)(Cn2cnc3c(ccn3-c3ccc(F)cc3)c2=O)CC1 [EXAMPLE 130, 7-(4-fluorophenyl)-3-[[4-hydroxy-1-[(3R,4R)-3-phenylpiperidine-4-carbonyl]-4-piperidyl]methyl]pyrrolo[2,3-d]pyrimidin-4-one]
